“Also recorded” adds a separate entry of the source. Residues, ends and D or L forms follow the SMILES beside them.
Assays:
[1] = Rheology (frequency, time and strain sweeps); assay type: physicochemical; details: for G' pre-assembling: average storage modulus of SAPeptide solution, before PBS; for G' pre-assembling / G' post-assembling: 1-100 Hz; for G' post-assembling: average storage modulus of jellified scaffold, after PBS; for Onset point (% strain): strain percentage at rupture, strain sweep at 1 Hz, 25 C
Method: Rheological properties of the self-assembling peptides of the invention were determined using a controlled stress TA Instruments AR-2000ex rheometer (TA Instruments). A cone-and-plate geometry (acrylic cone diameter, 20 mm; angle, 1°; truncation gap 34 µm) was used. Preliminary strain sweeps were performed for each sample to define the linear viscoelastic region, thus ensuring that moduli were independent of strain. Time sweeps, after addition of PBS (1x) were recorded at 25 C (angular frequency ω=1 Hz) and continued till G' plateaued. Frequency sweeps, both for peptide water solutions and for self-assembled scaffolds, were performed at 25 C with the instrument in oscillatory mode at controlled strain of 1 %. Final strain sweeps was performed at 1Hz oscillatory frequency and at 25 C: onset point of failure was calculated by linear interpolation and subsequent determination of the intersection of the G' modes within the linear region and at material failure respectively.

[2] = system: murine NSCs; experiment: Imaging and cell proliferation (MTS) assay on assembled scaffolds, murine NSCs; assay type: cell-based; details: for cell morphology, adhesion and spreading: 7 DIV on assembled hydrogels; for cell viability (MTS, cell population): 7 DIV, scaffolds 10 mg/ml, vs control, P<0.005, n=5
Method: (§1) In vitro tests were performed as previously described (8), in order to assess whether the biomaterials (assembled hydrogels) obtained with the SAPs of the present invention influenced NSCs adhesion, survival and/or differentiation. SAPeptides (30 µl for each well at a concentration of 10 mg/ml) were assembled into 96 multiwells two hours before cell. Cells (at a concentration of 2x10^4 cells/cm^2) were seeded on the top-surface of each assembled scaffold. Initially, cells were cultured with basal medium supplemented with βFGF (10 ng/ml), added to enhance neuronal progeny differentiation. At 3 days in vitro (DIV), βFGF medium was replaced with Leukemia Inhibitory Factor (LIF, Chemicon) (20 ng/ml) and Brain Derived Neurotrophic Factor (BDNF, Peprotech) (20 ng/ml). Fresh medium was added every three days. For both viability and differentiation assays positive and negative controls consisted of Cultrex-BME® substrate (R&D systems) (1:100 dilution in basal medium) and untreated bottom well surfaces respectively. Cell viability was quantified via CellTiter 96® Aqueous Proliferation Assay (Promega) at 7 DIV as recommended in the Promega protocol. After calibrating the linear response between the cell number and absorbance values, proliferated cell populations were quantified (n=5) by using a Vmax microplate reader (Molecular Devices) at 490nm wavelength. Values, reported as means ± standard error of the mean, were blanked to their respective controls consisting of same substrates and cell culture media without cells.

[3] = system: murine NSCs; experiment: Immunofluorescence of differentiated NSC progeny on scaffolds, murine NSCs; assay type: cell-based; details: for percentages of neurons (βIIITubulin positive cells): scaffolds of stiffness 100, 500 and 1000 Pa, best values, softer scaffolds; for differentiated neurons (βIIITubulin positive cells) versus scaffold stiffness: stiffness 100, 500 and 1000 Pa, P<0.05, P<0.01
Method: as §1
(§2) Immunofluorescence tests were performed for assaying the phenotypes of the differentiated human and murine NSC progenies. In the case of KLP and Ac-KLP just murine NSC have been used. Ac-KLP and KLP scaffolds were prepared at different concentrations in order to display three different stiffness values (viz. 100, 500 and 1000 Pa). This was done to assess the influence of scaffold concentration (and consequently its stiffness) over NSC differentiation. All the other peptides were tested at 1% v/w concentration instead. The following antibodies were used: rabbit polyclonal against GFAP (1:500, DakoCytomation) for astrocytes, mouse monoclonal against βIII-Tubulin (1:500, Covance) for neurons, mouse monoclonal against GalC (1:200, Chemicon) and O4 (1:200, Chemicon) for oligodendrocyes. Secondary Abs were Goat anti Mouse Alexa 488 (1:1000, Molecular Probes), Goat anti Mouse Cy3 (1:1000, Jackson Immunoresearch), Goat anti Rabbit Cy3 (1:1000, Jackson Immunoresearch). Cell nuclei were counterstained with DAPI (Molecular Probes). Quantitative analyses were performed by counting 100-300 cells for each of 9 randomly chosen fields over a total of 3 independent experiments. Phase contrast and fluorescence images of the adhering cells were acquired via Zeiss microscopes Axioplan 2 and ApoTome System at one week after seeding.

[4] = system: human NSCs; experiment: Imaging and cell proliferation (MTS) assay on assembled scaffolds, human NSCs; assay type: cell-based; details: for cell viability (MTS, cell population): 7 DIV, scaffolds 10 mg/ml, vs control, P<0.03, n=5
Method: as §1

[5] = system: human NSCs; experiment: Immunofluorescence of differentiated NSC progeny on scaffolds, human NSCs; assay type: cell-based; details: 1% scaffold; compared to Cultrex positive control
Method: as §1
as §2, with “Cell nuclei were counterstained with DAPI (Molecular Probes).” left out

[6] = 1% scaffold, compared to Cultrex positive control

Row | SMILES | G' pre-assembling ([1]; 1% w/v) [Pa] | G' post-assembling ([1]; 1% w/v) [Pa] | Onset point (% strain) [1] [%] | cell morphology, adhesion and spreading [2] | percentages of neurons (βIIITubulin positive cells) [3] | differentiated neurons (βIIITubulin positive cells) versus scaffold stiffness [3] | cell viability (MTS, cell population) [2] | cell viability (MTS, cell population) [4] | number of neurons [5] | number of oligodendrocytes [5] | cell morphology, adhesion and spreading ([4]; 7 DIV on assembled hydrogels) | number of neurons [3, 6] | number of oligodendrocytes [3, 6] | G' and G" values at different concentrations ([1]; 1% w/v, 2% w/v and 3% w/v)
1 | CC(=O)N[C@@H](CO)C(=O)N[C@@H](CO)C(=O)N[C@@H](CC(C)C)C(=O)N[C@@H](CO)C(=O)N[C@H](C(=O)N[C@@H](CC(N)=O)C(=O)N[C@@H](CC(=O)O)C(=O)NCC(=O)NCC(=O)NCC(=O)N[C@@H](CC(C)C)C(=O)N[C@@H](CC(=O)O)C(=O)N[C@@H](CC(C)C)C(=O)N[C@@H](CCCCN)C(=O)N[C@@H](CC(C)C)C(=O)N[C@@H](CC(=O)O)C(=O)N[C@@H](CC(C)C)C(=O)N[C@@H](CCCCN)C(=O)N[C@@H](CC(C)C)C(=O)N[C@@H](CC(=O)O)C(=O)N[C@@H](CC(C)C)C(=O)N[C@@H](CCCCN)C(N)=O)C(C)C [Ac-SSL, Ac-SSLSVND-GGG-LDLKLDLKLDLK-CONH2] (Ac-SSLSVNDGGGLDLKLDLKLDLK-NH2) | 6.72 | 267.3 | 26.12 | – | – | – | – | – | – | – | – | – | – | –
2 | CC(C)C[C@H](NC(=O)CNC(=O)CNC(=O)CNC(=O)CNC(=O)[C@H](CO)NC(=O)[C@H](Cc1c[nH]c2ccccc12)NC(=O)CNC(=O)[C@@H]1CCCN1C(=O)[C@H](CC(C)C)NC(=O)[C@@H](N)CCCCN)C(=O)N[C@@H](CC(=O)O)C(=O)N[C@@H](CC(C)C)C(=O)N[C@@H](CCCCN)C(=O)N[C@@H](CC(C)C)C(=O)N[C@@H](CC(=O)O)C(=O)N[C@@H](CC(C)C)C(=O)N[C@@H](CCCCN)C(=O)N[C@@H](CC(C)C)C(=O)N[C@@H](CC(=O)O)C(=O)N[C@@H](CC(C)C)C(=O)N[C@@H](CCCCN)C(N)=O [KLP, NH2-KLPGWSG-GGG-LDLKLDLKLDLK-CONH2] (H-KLPGWSGGGGLDLKLDLKLDLK-NH2) | 3.30 | 51.38 | 56.46 | fostered NSCs adhesion and spreading similarly to FAQ | above 50% | significant increments of differentiated neurons | – | – | – | – | – | – | – | –
3 | CC(C)C[C@H](NC(=O)CNC(=O)CNC(=O)CNC(=O)[C@H](Cc1c[nH]cn1)NC(=O)[C@H](CC(=O)O)NC(=O)[C@H](CCCNC(=N)N)NC(=O)[C@@H]1CCCN1C(=O)[C@H](CC(C)C)NC(=O)[C@H](Cc1c[nH]cn1)NC(=O)[C@@H](N)CCC(N)=O)C(=O)N[C@@H](CC(=O)O)C(=O)N[C@@H](CC(C)C)C(=O)N[C@@H](CCCCN)C(=O)N[C@@H](CC(C)C)C(=O)N[C@@H](CC(=O)O)C(=O)N[C@@H](CC(C)C)C(=O)N[C@@H](CCCCN)C(=O)N[C@@H](CC(C)C)C(=O)N[C@@H](CC(=O)O)C(=O)N[C@@H](CC(C)C)C(=O)N[C@@H](CCCCN)C(N)=O [QHL, NH2-QHLPRDH-GGG-LDLKLDLKLDLK-CONH2] (H-QHLPRDHGGGLDLKLDLKLDLK-NH2) | 4.53 | 296.9 | 28.58 | – | – | – | significantly fostered cell viability; also recorded: significantly favored | significantly fostered cell viability; also recorded: significantly favored | – | – | – | – | – | –
4 | CC(=O)N[C@@H](CCC(N)=O)C(=O)N[C@@H](Cc1c[nH]cn1)C(=O)N[C@@H](CC(C)C)C(=O)N1CCC[C@H]1C(=O)N[C@@H](CCCNC(=N)N)C(=O)N[C@@H](CC(=O)O)C(=O)N[C@@H](Cc1c[nH]cn1)C(=O)NCC(=O)NCC(=O)NCC(=O)N[C@@H](CC(C)C)C(=O)N[C@@H](CC(=O)O)C(=O)N[C@@H](CC(C)C)C(=O)N[C@@H](CCCCN)C(=O)N[C@@H](CC(C)C)C(=O)N[C@@H](CC(=O)O)C(=O)N[C@@H](CC(C)C)C(=O)N[C@@H](CCCCN)C(=O)N[C@@H](CC(C)C)C(=O)N[C@@H](CC(=O)O)C(=O)N[C@@H](CC(C)C)C(=O)N[C@@H](CCCCN)C(N)=O [Ac-QHL, Ac-QHLPRDH-GGG-LDLKLDLKLDLK-CONH2] (Ac-QHLPRDHGGGLDLKLDLKLDLK-NH2) | 2.68 | 166.7 | 10.16 | – | – | – | – | – | – | – | – | – | – | –
5 | CC(C)C[C@H](NC(=O)CNC(=O)CNC(=O)CNC(=O)[C@H](CC(=O)O)NC(=O)[C@H](CC(N)=O)NC(=O)[C@@H](NC(=O)[C@H](CO)NC(=O)[C@H](CC(C)C)NC(=O)[C@H](CO)NC(=O)[C@@H](N)CO)C(C)C)C(=O)N[C@@H](CC(=O)O)C(=O)N[C@@H](CC(C)C)C(=O)N[C@@H](CCCCN)C(=O)N[C@@H](CC(C)C)C(=O)N[C@@H](CC(=O)O)C(=O)N[C@@H](CC(C)C)C(=O)N[C@@H](CCCCN)C(=O)N[C@@H](CC(C)C)C(=O)N[C@@H](CC(=O)O)C(=O)N[C@@H](CC(C)C)C(=O)N[C@@H](CCCCN)C(N)=O [SSL, NH2-SSLSVND-GGG-LDLKLDLKLDLK-CONH2] (H-SSLSVNDGGGLDLKLDLKLDLK-NH2) | 9.01 | 124.7 | 17.78 | – | – | – | – | – | – | – | – | – | – | –
6 | CC(C)C[C@H](NC(=O)CNC(=O)CNC(=O)CNC(=O)[C@@H]1CCCN1C(=O)[C@@H]1CCCN1C(=O)[C@@H](NC(=O)[C@H](CCCNC(=N)N)NC(=O)[C@H](CCC(N)=O)NC(=O)[C@H](C)NC(=O)[C@@H](N)Cc1ccccc1)C(C)C)C(=O)N[C@@H](CC(=O)O)C(=O)N[C@@H](CC(C)C)C(=O)N[C@@H](CCCCN)C(=O)N[C@@H](CC(C)C)C(=O)N[C@@H](CC(=O)O)C(=O)N[C@@H](CC(C)C)C(=O)N[C@@H](CCCCN)C(=O)N[C@@H](CC(C)C)C(=O)N[C@@H](CC(=O)O)C(=O)N[C@@H](CC(C)C)C(=O)N[C@@H](CCCCN)C(N)=O [FAQ, NH2-FAQRVPP-GGG-LDLKLDLKLDLK-CONH2] (H-FAQRVPPGGGLDLKLDLKLDLK-NH2) | 6.66 | 142.7 | 25.43 | spread and branched cells | – | – | significantly fostered cell viability; also recorded: cell population was bigger | significantly fostered cell viability; also recorded: cell population was bigger | significantly higher | significantly higher | spread and branched cells | significantly higher | significantly higher | –
7 | CC(=O)N[C@@H](CCCCN)C(=O)N[C@@H](CC(C)C)C(=O)N1CCC[C@H]1C(=O)NCC(=O)N[C@@H](Cc1c[nH]c2ccccc12)C(=O)N[C@@H](CO)C(=O)NCC(=O)NCC(=O)NCC(=O)NCC(=O)N[C@@H](CC(C)C)C(=O)N[C@@H](CC(=O)O)C(=O)N[C@@H](CC(C)C)C(=O)N[C@@H](CCCCN)C(=O)N[C@@H](CC(C)C)C(=O)N[C@@H](CC(=O)O)C(=O)N[C@@H](CC(C)C)C(=O)N[C@@H](CCCCN)C(=O)N[C@@H](CC(C)C)C(=O)N[C@@H](CC(=O)O)C(=O)N[C@@H](CC(C)C)C(=O)N[C@@H](CCCCN)C(N)=O [Ac-KLP, Ac-KLPGWSG-GGG-LDLKLDLKLDLK-CONH2] (Ac-KLPGWSGGGGLDLKLDLKLDLK-NH2) | 2.88 | 91.2 | 47.82 | – | above 50% | significant increments of differentiated neurons | – | – | – | – | – | – | – | increased with concentration increments

Reference: patent EP2686338B1, “FUNCTIONALIZED BIOMATERIALS FOR TISSUE REGENERATION” (Nanomed3d S.r.l., priority 2011, dated 2018)
